# In ChEMBL document CHEMBL5360570, “Discovery of pyrazolo[3,4-b]pyridine derivatives as novel and potent Mps1 inhibitors for the treatment of cancer” (Eur J Med Chem, 2023):
# Key:
# [1] = target: Tyrosine-protein kinase Fes/Fps (Homo sapiens) (UniProt P07332); test: Inhibition of FES (unknown origin) assessed as residual activity at 1 uM relative to control
# MDA-MB-468 [2] = test: Antitumor activity against human MDA-MB-468 cells xenografted in BALB/c nude mouse assessed as tumor growth inhibition at 30 mg/kg, iv administered once daily for 21 days; type: functional; conditions: MDA-MB-468, 504 h, time 21 day, read-out: TGI
# [3] = system: Fibroblast growth factor receptor 2 (Homo sapiens), P21802 [K526E]; test: Inhibition of FGFR2 K526E mutant (unknown origin) assessed as residual activity at 1 uM relative to control
# [4] = MRT (0 to t) in Sprague-Dawley rat at 2 mg/kg, iv measured upto 24 hrs by LC-MS/MS analysis; type: ADME, organism-based; conditions: in vivo
# [5] = Tmax in Sprague-Dawley rat at 10 mg/kg, po measured upto 24 hrs by LC-MS/MS analysis; type: ADME, organism-based; conditions: in vivo
# [6] = system: ALK tyrosine kinase receptor (Homo sapiens), Q9UM73 [G1269S]; test: Inhibition of ALK G1269S mutant (unknown origin) assessed as residual activity at 1 uM relative to control
# [7] = target: MAP/microtubule affinity-regulating kinase 4 (Homo sapiens) (UniProt Q96L34); test: Inhibition of MARK4 (unknown origin) assessed as residual activity at 1 uM relative to control
# [8] = Clearance in Sprague-Dawley rat at 2 mg/kg, iv measured upto 24 hrs by LC-MS/MS analysis; type: ADME, organism-based; conditions: in vivo
# [9] = system: ALK tyrosine kinase receptor (Homo sapiens), Q9UM73 [T1151M]; test: Inhibition of ALK T1151M mutant (unknown origin) assessed as residual activity at 1 uM relative to control
# [10] = target: Serine/threonine-protein kinase SIK1 (Homo sapiens) (UniProt P57059); test: Inhibition of SIK1 (unknown origin) assessed as residual activity at 1 uM relative to control
# [11] = system: ALK tyrosine kinase receptor (Homo sapiens), Q9UM73 [F1174S]; test: Inhibition of ALK F1174S mutant (unknown origin) assessed as residual activity at 1 uM relative to control
# MCF7 = test: Antiproliferative activity against human MCF7 cells assessed inhibition of cell growth incubated for 72 hrs by CCK-8 assay; type: functional, cell-based; conditions: MCF7, 72 h
# MDA-MB-468 [12] = test: cells; type: functional, cell-based; conditions: Homo sapiens, MDA-MB-468, 72 h
# Description: Antiproliferative activity against human MDA-MB-468 cells assessed inhibition of cell growth incubated for 72 hrs by CCK-8 assay
# ALK-KLC1 (Homo sapiens) = ALK-KLC1 (Homo sapiens) (UniProt Q9UM73+Q07866); test: Inhibition of ALK-KLC1 (unknown origin) assessed as residual activity at 1 uM relative to control; type: protein assay
# [13] = MRT (0 to infinity) in Sprague-Dawley rat at 2 mg/kg, iv measured upto 24 hrs by LC-MS/MS analysis; type: ADME, organism-based; conditions: in vivo
# [14] = Half life in Sprague-Dawley rat at 2 mg/kg, iv measured upto 24 hrs by LC-MS/MS analysis; type: ADME, organism-based; conditions: in vivo
# ALK-TFG (Homo sapiens) = ALK-TFG (Homo sapiens) (UniProt Q9UM73+Q92734); test: Inhibition of ALK-TFG (Tex4Aex20) (unknown origin) assessed as residual activity at 1 uM relative to control; type: protein assay
# [15] = Metabolic stability in human liver microsome assessed as intrinsic clearance preincubated for 10 mins followed by NADPH addition and measured upto 60 mins by LC-MS/MS analysis; type: ADME; conditions: liver microsomes, time < 70 min, read-out: CLH
# ALK-TPM1 (Homo sapiens) = ALK-TPM1 (Homo sapiens) (UniProt Q9UM73+P09493); test: Inhibition of ALK-TPM1 (unknown origin) assessed as residual activity at 1 uM relative to control; type: protein assay
# [16] = target: Calcium/calmodulin-dependent protein kinase kinase 2 (Homo sapiens) (UniProt Q96RR4); test: Inhibition of CAMKK2 (unknown origin) assessed as residual activity at 1 uM relative to control
# [17] = target: Tyrosine-protein kinase JAK3 (Homo sapiens) (UniProt P52333); test: Inhibition of JAK3 (unknown origin) assessed as residual activity at 1 uM relative to control
# [18] = Cmax in Sprague-Dawley rat at 10 mg/kg, po measured upto 24 hrs by LC-MS/MS analysis; type: ADME, organism-based; design: time < 24 hrs, dose 10 mg/kg, route po; conditions: in vivo
# [19] = target: Mitogen-activated protein kinase kinase kinase 9 (Homo sapiens) (UniProt P80192); test: Inhibition of MLK1 (unknown origin) assessed as residual activity at 1 uM relative to control
# [20] = AUC (0 to infinity) in Sprague-Dawley rat at 10 mg/kg, po measured upto 24 hrs by LC-MS/MS analysis; type: ADME, organism-based; design: dose 10 mg/kg, time < 24 hrs, route po; conditions: in vivo
# [21] = Cmax in Sprague-Dawley rat at 2 mg/kg, iv measured upto 24 hrs by LC-MS/MS analysis; type: ADME, organism-based; design: time < 24 hrs, dose 2 mg/kg, route iv; conditions: in vivo
# [22] = system: NPM/ALK (Nucleophosmin/ALK tyrosine kinase receptor) (Homo sapiens), Q9UM73+P06748 [F1174L]; test: Inhibition of ALK F1174L mutant (unknown origin)/NPM1 (unknown origin) assessed as residual activity at 1 uM relative to control; type: protein assay
# [23] = AUC (0 to t) in Sprague-Dawley rat at 2 mg/kg, iv measured upto 24 hrs by LC-MS/MS analysis; type: ADME, organism-based; design: dose 2 mg/kg, time < 24 hrs, route iv; conditions: in vivo
# [24] = target: Epithelial discoidin domain-containing receptor 1 (Homo sapiens) (UniProt Q08345); test: Inhibition of DDR1 (unknown origin) assessed as residual activity at 1 uM relative to control
# [25] = target: Tyrosine-protein kinase FRK (Homo sapiens) (UniProt P42685); test: Inhibition of PTK5 (unknown origin) assessed as residual activity at 1 uM relative to control
# [26] = target: NUAK family SNF1-like kinase 1 (Homo sapiens) (UniProt O60285); test: Inhibition of ARK5 (unknown origin) assessed as residual activity at 1 uM relative to control
# [27] = target: NPM/ALK (Nucleophosmin/ALK tyrosine kinase receptor) (Homo sapiens) (UniProt Q9UM73+P06748); test: Inhibition of ALK-NPM1 (unknown origin) assessed as residual activity at 1 uM relative to control; type: protein assay
# [28] = Metabolic stability in human liver microsome assessed as half life preincubated for 10 mins followed by NADPH addition and measured upto 60 mins by LC-MS/MS analysis; type: ADME; conditions: liver microsomes, time < 70 min
# [29] = system: ALK tyrosine kinase receptor (Homo sapiens), Q9UM73 [R1275Q]; test: Inhibition of ALK R1275Q mutant (unknown origin) assessed as residual activity at 1 uM relative to control
# [30] = target: ALK tyrosine kinase receptor (Homo sapiens) (UniProt Q9UM73); test: Inhibition of ALK (unknown origin) assessed as residual activity at 1 uM relative to control
# [31] = system: ALK tyrosine kinase receptor (Homo sapiens), Q9UM73 [G1202R]; test: Inhibition of ALK G1202R mutant (unknown origin) assessed as residual activity at 1 uM relative to control
# [32] = Metabolic stability in human liver microsome assessed as parent compound remaining preincubated for 10 mins followed by NADPH addition and measured at 30 mins by LC-MS/MS analysis; type: ADME; conditions: liver microsomes, time 40 min, read-out: Stability
# Sequence of Tyrosine-protein kinase JAK3 (Homo sapiens) (P52333 whole entry): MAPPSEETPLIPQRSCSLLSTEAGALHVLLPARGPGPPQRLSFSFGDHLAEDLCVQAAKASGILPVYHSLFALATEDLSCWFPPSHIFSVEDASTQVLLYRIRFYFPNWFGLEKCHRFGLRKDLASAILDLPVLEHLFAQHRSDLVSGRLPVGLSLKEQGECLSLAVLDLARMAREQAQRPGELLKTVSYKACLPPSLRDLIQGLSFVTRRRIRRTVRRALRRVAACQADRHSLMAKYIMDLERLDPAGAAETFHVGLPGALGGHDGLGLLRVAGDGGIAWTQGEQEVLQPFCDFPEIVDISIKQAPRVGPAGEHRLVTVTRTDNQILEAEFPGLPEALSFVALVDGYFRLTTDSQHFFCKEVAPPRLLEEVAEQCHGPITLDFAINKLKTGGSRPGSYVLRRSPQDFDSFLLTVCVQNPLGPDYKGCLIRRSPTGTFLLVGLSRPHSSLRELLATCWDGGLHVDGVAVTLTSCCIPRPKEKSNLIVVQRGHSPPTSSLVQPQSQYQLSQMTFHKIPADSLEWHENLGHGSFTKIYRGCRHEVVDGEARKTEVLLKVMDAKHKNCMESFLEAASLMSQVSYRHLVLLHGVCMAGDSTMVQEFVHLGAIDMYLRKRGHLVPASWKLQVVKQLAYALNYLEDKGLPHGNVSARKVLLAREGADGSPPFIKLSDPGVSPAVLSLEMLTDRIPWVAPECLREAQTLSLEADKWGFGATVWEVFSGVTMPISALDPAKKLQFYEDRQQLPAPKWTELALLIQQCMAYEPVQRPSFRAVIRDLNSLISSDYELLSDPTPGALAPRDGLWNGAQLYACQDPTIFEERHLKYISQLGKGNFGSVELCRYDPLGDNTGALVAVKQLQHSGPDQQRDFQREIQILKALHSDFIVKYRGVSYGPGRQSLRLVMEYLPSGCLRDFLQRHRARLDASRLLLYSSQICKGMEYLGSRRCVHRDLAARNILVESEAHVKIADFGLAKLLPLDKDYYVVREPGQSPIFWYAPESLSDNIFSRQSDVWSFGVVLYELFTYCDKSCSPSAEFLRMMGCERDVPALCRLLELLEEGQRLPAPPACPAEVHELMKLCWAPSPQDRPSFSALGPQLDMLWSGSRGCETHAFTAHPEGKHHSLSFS
# Sequence of Epithelial discoidin domain-containing receptor 1 (Homo sapiens) (Q08345 whole entry, the tested form may be a part): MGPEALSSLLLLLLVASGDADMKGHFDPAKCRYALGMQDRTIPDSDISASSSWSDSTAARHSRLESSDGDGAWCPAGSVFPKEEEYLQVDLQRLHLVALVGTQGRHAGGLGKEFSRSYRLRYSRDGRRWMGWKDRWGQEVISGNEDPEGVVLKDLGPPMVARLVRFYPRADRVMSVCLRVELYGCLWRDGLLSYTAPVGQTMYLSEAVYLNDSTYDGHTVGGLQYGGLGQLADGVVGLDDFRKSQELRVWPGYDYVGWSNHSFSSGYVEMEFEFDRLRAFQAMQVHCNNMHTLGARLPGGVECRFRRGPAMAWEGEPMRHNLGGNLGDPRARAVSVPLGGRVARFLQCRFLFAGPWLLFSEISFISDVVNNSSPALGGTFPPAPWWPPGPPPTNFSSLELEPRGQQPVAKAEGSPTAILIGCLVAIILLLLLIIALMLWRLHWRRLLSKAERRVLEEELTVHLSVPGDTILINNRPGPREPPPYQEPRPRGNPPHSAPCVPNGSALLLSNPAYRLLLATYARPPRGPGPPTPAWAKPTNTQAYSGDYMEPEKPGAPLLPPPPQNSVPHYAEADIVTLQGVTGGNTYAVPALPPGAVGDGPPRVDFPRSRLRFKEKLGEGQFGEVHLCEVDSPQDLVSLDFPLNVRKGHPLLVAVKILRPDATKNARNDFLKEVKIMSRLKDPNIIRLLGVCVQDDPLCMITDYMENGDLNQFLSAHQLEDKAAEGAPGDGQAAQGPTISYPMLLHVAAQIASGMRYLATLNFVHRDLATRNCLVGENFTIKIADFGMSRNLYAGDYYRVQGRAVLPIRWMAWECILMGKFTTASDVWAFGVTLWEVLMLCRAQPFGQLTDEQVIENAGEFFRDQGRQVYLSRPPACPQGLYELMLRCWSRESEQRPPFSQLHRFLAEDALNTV
# Sequence of Calcium/calmodulin-dependent protein kinase kinase 2 (Homo sapiens) (Q96RR4 2-588 limits assumed): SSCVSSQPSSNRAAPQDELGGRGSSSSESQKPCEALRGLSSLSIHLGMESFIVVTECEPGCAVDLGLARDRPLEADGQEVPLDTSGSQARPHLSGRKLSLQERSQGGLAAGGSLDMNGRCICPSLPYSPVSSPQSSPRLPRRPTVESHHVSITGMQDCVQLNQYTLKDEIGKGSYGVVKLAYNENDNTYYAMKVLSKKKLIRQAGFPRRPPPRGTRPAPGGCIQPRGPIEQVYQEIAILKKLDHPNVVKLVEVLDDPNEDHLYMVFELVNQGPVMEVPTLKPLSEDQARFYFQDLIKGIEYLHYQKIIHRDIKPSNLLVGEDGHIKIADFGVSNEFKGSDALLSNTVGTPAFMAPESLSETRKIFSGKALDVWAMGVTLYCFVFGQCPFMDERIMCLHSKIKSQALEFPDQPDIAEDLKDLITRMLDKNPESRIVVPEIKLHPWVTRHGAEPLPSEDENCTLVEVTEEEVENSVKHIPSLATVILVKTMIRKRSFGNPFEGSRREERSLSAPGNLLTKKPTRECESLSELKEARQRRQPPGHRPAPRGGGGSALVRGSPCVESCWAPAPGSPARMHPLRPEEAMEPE
# Sequence of NPM/ALK (Nucleophosmin/ALK tyrosine kinase receptor) (Homo sapiens) (P06748 whole entry partner): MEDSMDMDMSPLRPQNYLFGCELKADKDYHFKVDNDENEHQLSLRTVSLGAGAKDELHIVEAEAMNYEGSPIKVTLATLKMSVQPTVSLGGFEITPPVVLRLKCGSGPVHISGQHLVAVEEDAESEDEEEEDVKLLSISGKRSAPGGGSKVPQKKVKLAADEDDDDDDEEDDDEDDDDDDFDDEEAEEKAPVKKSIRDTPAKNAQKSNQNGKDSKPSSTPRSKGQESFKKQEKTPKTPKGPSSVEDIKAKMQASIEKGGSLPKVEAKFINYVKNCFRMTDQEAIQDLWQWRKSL
# Sequence of NPM/ALK (Nucleophosmin/ALK tyrosine kinase receptor) (Homo sapiens) (Q9UM73 19-1620 limits assumed): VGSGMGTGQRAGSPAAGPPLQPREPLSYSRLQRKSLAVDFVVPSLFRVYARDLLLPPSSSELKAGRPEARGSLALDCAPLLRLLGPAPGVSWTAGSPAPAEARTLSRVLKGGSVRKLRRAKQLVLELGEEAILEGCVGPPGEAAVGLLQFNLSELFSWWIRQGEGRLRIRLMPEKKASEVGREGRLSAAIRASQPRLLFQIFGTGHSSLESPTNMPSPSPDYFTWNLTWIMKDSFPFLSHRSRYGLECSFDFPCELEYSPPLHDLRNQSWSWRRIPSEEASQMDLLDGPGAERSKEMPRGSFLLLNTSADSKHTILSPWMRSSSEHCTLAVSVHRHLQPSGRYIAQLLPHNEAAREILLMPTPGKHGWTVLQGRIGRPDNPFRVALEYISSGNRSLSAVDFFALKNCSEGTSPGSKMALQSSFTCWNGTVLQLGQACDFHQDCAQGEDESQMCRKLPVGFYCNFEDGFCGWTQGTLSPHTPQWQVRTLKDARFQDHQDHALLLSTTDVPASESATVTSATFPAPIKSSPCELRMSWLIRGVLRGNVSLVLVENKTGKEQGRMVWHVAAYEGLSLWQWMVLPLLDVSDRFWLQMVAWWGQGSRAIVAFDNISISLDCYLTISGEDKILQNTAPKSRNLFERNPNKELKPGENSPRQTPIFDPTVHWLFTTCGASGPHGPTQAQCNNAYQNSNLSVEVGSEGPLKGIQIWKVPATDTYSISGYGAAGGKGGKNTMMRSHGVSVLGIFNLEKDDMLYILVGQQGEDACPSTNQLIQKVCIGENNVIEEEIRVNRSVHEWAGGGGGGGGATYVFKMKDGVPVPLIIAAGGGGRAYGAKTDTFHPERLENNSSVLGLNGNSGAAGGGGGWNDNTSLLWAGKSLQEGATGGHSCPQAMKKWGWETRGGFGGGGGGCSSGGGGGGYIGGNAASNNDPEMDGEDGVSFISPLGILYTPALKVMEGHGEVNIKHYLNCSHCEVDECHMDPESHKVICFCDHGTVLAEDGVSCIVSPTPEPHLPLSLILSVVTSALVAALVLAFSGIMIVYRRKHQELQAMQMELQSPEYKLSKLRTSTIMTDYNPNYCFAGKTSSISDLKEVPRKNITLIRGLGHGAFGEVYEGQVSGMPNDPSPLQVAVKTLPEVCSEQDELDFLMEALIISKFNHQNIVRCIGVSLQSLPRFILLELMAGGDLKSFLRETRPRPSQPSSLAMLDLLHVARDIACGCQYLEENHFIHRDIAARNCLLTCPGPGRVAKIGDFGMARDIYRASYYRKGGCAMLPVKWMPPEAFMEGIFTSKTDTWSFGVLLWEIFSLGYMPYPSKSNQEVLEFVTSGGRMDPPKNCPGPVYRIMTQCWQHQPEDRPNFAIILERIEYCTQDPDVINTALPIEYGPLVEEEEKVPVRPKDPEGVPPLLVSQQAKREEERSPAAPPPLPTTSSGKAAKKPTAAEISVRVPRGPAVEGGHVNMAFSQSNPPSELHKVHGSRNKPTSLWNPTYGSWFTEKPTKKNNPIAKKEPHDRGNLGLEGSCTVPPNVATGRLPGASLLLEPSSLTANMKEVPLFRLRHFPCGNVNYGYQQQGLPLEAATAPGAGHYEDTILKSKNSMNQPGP
# Sequence of Tyrosine-protein kinase FRK (Homo sapiens) (P42685 whole entry): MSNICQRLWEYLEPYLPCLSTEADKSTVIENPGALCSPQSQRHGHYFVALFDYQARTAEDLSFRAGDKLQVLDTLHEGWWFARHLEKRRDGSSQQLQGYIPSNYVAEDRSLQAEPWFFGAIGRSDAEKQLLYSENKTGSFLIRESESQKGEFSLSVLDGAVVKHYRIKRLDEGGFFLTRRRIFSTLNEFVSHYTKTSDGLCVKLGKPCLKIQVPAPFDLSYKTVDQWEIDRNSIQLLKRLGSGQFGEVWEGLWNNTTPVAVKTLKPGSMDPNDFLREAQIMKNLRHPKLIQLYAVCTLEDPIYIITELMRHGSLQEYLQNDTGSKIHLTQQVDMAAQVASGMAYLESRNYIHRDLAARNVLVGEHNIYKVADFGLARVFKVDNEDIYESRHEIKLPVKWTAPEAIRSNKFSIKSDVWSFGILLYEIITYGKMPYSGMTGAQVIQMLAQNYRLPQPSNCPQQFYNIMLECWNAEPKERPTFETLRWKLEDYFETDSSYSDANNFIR
# Sequence of ALK tyrosine kinase receptor (Homo sapiens) (Q9UM73 19-1620 limits assumed): as the sequence (Q9UM73 19-1620 limits assumed) above
compound,measurement,setting,value
CCc1cccc(CC)c1N1CCn2cc(-c3nc(Nc4ccc(N5CCN(C(C)=O)CC5)cc4OC)nc4[nH]ncc34)cc2C1=O,Activity,[1],< 10%
same,inhibition in vivo at 30 mg/kg,MDA-MB-468 [2],21%
same,Activity,[3],< 10%
same,MRT last at 24 h,[4],20.4 min
same,Tmax,[5],20 min
same,Activity,[6],< 10%
same,Activity,[7],< 10%
same,clearance,[8],32 mL/min/kg
same,Activity,[9],< 10%
same,Activity,[10],< 10%
same,Activity,[11],< 10%
same,IC50,MCF7,> 10 µM
same,IC50,MDA-MB-468 [12],0.221 µM
same,Activity,ALK-KLC1 (Homo sapiens),< 10%
same,MRT inf,[13],21.2 min
same,half-life,[14],49.5 min
same,Activity,ALK-TFG (Homo sapiens),< 10%
same,CLint scaled,[15],33.5 mL/min/kg
same,Activity,ALK-TPM1 (Homo sapiens),< 10%
same,Activity,[16],< 10%
same,Activity,[17],< 10%
same,Cmax,[18],160 ng/mL
same,Activity,[19],< 10%
same,AUC(0-inf),[20],208 ng·h/mL
same,Cmax,[21],2920 ng/mL
same,Activity,[22],< 10%
same,AUC(0-t) at 24 h,[23],1050 ng·h/mL
same,Activity,[24],< 10%
same,Activity,[25],< 10%
same,Activity,[26],< 10%
same,Activity,[27],< 10%
same,half-life,[28],35.2 min
same,Activity,[29],< 10%
same,Activity,[30],< 10%
same,Activity,[31],< 10%
same,remaining at 0.5 h,[32],48.7%
